Columns and labels:
Format in all cases: cell-based
BRD4 [1] = biological target: T1, BRD4 (Homo sapiens, UniProt O60885); experiment: Immunoblot of BRD4 protein levels in Daudi, SU-DHL-4 or MDA-MB-231 cells; details: SU-DHL-4 or MDA-MB-231 cell lines, 8 hours, dose range
T1 construct: endogenous in cells; host or cells: Daudi, SU-DHL-4, MDA-MB-231
Source text: Additional exemplary heterobifunctional compounds were designed to modulate the protein levels of either P300/CBP, or BRD4, and characterized in multiple cell lines. […] Taken together, DDB1 ligands conjugating with different target ligands may modulate the cellular target protein levels of cyclin D, CDK4/6, P300/CBP and BRD4.

BRD4 [2] = biological target: T1, BRD4; experiment: Immunoblotting of BRD4 protein levels in multiple cell lines; details: Daudi, SU-DHL-4, or MDA-MB-231 cells, 8 hours
Method: Daudi, SU-DHL-4, or MDA-MB-231 cells were treated with CPD-253 at indicated concentrations for 8 hours.
Cultured cells were washed with cold PBS once and lysed in cold RIPA buffer supplemented with protease inhibitors and phosphatase inhibitors (Beyotime Biotechnology). The solutions were then incubated at 4° C. for 30 min with gentle agitation to fully lysed cells. Cell lysates were centrifuged at 13,000 rpm for 10 min at 4° C. and pellets were discarded. Total protein concentrations in the lysates were determined following BCA assays (Beyotime Biotechnology). Cell lysates were mixed with Laemmli loading buffer and heated at 99° C. for 5 min. Proteins were resolved on SDS-PAGE and visualized using Western ECL Substrate kits on a ChemiDoc MP Imaging system (Bio-Rad). Protein bands were quantitated using the Image Lab software provided by Bio-Rad.

[3] = system: T47D palbo-resistant model; experiment: CellTiter-Lumi cell viability in T47D palbociclib-resistant model; details: 6 days; resistance acquired under 1 μM palbociclib
Method: Furthermore, we developed one ER^+ breast cancer T47D model with acquired resistance after long period of treatment with 1 μM palbociclib (over IC90). […] Palbo resistance was determined by CellTiter-Lumi cell viability assay.

T47D cells [4] = experiment: Annexin V apoptosis flow cytometry in T47D cells; details: 6 days
Method: T47D cells were treated with DMSO, palbociclib, heterobifunctional compound CPD-343, or negative control compound CPD-380 for 6 days at doses approximating IC50 and IC90 concentrations as indicated. Cells were harvested by trypsinization, staining was carried out using the Annexin V Apoptosis Detection Kit.
Assays were performed on the CytoFLEX Cytometer (Beckman Coulter), and data were analyzed using CytExpert software. For cell death and apoptosis analysis, cells were harvested by trypsinization, staining was carried out using the Annexin V Apoptosis Detection Kit (BD Biosciences). Briefly, cells were resuspended in 1× binding buffer and incubated with fluorochrome-conjugated Annexin V and 7-AAD for 15 min in darkness at room temperature.

cyclin D1 = experiment: Cyclin D1 percentage degradation in Calu-1 cells (immunoblotting); details: 200 nM, 16 hours
Procedure, shortened: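 Cells were rinsed once in cold PBS and lysed in cold RIPA buffer containing protease and phosphatase inhibitors, with gentle agitation at 4° C. for 30 min. Lysates were spun at 13,000 rpm for 10 min at 4° C., protein was measured by BCA, and samples were boiled in Laemmli buffer at 99° C. for 5 min before SDS-PAGE immunoblotting.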

T47D cells [5] = experiment: Flow cytometric analysis of Annexin V/7-AAD stained T47D cells; details: 6 days
Method: ER^+ breast cancer T47D cells were treated with DMSO, palbociclib, heterobifunctional compound CPD-343, or negative control compound CPD-380 for 6 days at doses approximating IC50 and IC90 concentrations determined in FIGS. 10A and 13. Cells were harvested by trypsinization, staining was carried out using the Annexin V Apoptosis Detection Kit. The percentages of early apoptotic (Annexin V^+7-AAD^−, lower right quadrant), late apoptotic (Annexin V^+7-AAD^+, upper right quadrant) and necrotic cells (Annexin V-7-AAD^+, upper left quadrant) are indicated on dot plots. […] Furthermore, we developed one ER^+ breast cancer T47D model with acquired resistance after long period of treatment with 1 μM palbociclib (over IC90). Cells were deemed resistant when growing in the presence of palbo at the same rate as parental cells. Palbo resistance was determined by CellTiter-Lumi cell viability assay.

CDK4 = biological target: T2, CDK4 (Homo sapiens, UniProt P11802); experiment: CDK4 percentage degradation in Calu-1 cells (immunoblotting); details: Calu-1 cells, 200 nM, 16 hours; read-out: CDK4 Degradation (200 nM)
T2 construct: endogenous in cells; host or cells: Calu-1
Procedure, shortened: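 Cultured cells were rinsed once in cold PBS and lysed in cold RIPA buffer containing protease and phosphatase inhibitors, with gentle agitation at 4° C. for 30 min. Lysates were centrifuged at 13,000 rpm for 10 min at 4° C., and protein was quantified by BCA. Samples were then separated by SDS-PAGE, detected with ECL, and the CDK4 bands quantified in Image Lab.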

[6] = system: T47D palbo-resistant cells; experiment: Cell viability in T47D palbo-resistant model; details: 10-point serial dilution, 6 days
Method: T47D cells were cultured long-term to resistance in the presence of 1 μM Palbocicilib. Palbo resistance was determined by CellTiter-Lumi cell viability assay. T47D parental or palbo-resistant cells were treated with palbociclib, or heterobifunctional compound CPD-343 following a 10-point serial dilution for 6 days.
Calu-1, T47D, MCF7, NCI-H522, BT-549, MDA-MB-157, MDA-MB-453, MDA-MB-468, Hs578T, KURAMOCHI, OVCAR3, MIA PaCa-2, Cal-62, LNCaP, NCI-H1703, MM.1R, Daudi, SU-DHL-4, MDA-MB-231 and other cells were cultured at 37° C. with 5% CO2 in RPMI 1640 or DMEM medium supplemented with 10% fetal bovine serum. Cells were authenticated using the short tandem repeat (STR) assays. Mycoplasma test results were negative. Cell transfection was performed using PEI or Lipofectamine 2000 (Invitrogen) following the manufacturer's instructions. […]
Cells were seeded at a density of 2,000-5,000 cells per well in 96-well assay plates and treated with test compounds following a 10-point serial dilution for 3-6 days. Cell viability was determined using the CellTiter-Lumi assay kit according to the manufacturer's instructions. The dose-response curves were determined and IC50 values were calculated using the GraphPad Prism software following a nonlinear regression (least squares fit) method. […]

T2 sequence (P11802 2-303 limits assumed): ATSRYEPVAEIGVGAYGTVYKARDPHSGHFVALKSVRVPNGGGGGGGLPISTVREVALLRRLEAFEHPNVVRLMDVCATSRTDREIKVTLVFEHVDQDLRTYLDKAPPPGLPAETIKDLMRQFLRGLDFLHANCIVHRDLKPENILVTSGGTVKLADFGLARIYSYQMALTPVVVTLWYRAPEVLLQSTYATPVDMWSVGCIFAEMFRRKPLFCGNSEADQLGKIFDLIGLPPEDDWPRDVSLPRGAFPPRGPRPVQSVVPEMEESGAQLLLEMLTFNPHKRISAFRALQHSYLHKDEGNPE
T2 sequence (P24385 whole entry partner): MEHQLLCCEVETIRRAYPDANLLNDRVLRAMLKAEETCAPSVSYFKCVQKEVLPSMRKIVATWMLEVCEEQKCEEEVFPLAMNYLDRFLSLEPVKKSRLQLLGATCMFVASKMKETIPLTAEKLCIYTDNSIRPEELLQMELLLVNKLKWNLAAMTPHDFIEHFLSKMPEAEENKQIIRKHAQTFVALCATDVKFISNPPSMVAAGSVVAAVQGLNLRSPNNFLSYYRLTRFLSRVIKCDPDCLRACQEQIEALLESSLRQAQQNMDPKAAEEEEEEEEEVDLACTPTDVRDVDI
T2 sequence (Q16531 2-1140 limits assumed, further chain): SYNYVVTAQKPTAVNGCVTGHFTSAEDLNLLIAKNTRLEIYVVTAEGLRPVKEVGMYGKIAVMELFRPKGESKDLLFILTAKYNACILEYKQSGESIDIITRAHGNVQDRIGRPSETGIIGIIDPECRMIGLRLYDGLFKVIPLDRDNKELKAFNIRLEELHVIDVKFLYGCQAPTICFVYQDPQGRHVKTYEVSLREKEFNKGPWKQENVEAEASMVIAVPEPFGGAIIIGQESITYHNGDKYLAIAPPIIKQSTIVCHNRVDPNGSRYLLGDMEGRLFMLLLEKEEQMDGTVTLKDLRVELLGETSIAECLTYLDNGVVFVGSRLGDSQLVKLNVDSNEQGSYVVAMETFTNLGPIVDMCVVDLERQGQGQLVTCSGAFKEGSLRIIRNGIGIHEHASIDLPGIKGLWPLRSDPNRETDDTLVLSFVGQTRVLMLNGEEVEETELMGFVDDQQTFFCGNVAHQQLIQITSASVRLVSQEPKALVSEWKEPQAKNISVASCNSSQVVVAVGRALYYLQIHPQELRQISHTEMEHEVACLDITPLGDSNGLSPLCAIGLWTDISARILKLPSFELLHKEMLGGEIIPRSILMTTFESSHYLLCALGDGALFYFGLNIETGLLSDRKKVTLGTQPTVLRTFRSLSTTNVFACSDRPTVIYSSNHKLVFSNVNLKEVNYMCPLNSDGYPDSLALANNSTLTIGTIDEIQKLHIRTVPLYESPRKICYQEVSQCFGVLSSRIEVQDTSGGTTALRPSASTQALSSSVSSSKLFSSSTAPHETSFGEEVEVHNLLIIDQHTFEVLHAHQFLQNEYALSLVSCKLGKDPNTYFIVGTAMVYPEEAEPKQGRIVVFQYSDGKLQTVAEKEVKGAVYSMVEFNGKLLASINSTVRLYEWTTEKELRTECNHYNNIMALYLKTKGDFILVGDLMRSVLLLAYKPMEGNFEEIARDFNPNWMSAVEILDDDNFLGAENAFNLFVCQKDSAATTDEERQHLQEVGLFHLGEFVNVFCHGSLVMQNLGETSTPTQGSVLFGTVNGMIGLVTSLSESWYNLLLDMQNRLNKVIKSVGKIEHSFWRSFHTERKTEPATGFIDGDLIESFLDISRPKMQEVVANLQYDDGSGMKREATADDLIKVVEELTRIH

Row | Compound | reduction of BRD4 protein levels (BRD4 [1]) | BRD4 protein levels (BRD4 [2]) | activity in T47D palbo-resistant model compared to parental cells [3] | Annexin V+ population (T47D cells [4]; 10 nM) [%] | Annexin V+ population (T47D cells [4]; 200 nM) [%] | CyclinD1 Degradation (200 nM) (cyclin D1) | Annexin V+ population (T47D cells [5]; 10 nM) [%] | Annexin V+ population (T47D cells [5]; 200 nM) [%] | inhibition at 0.2 µM (CDK4) [%] | cell viability in T47D palbo-resistant model [6]
1 | Cc1nc(NC(=O)c2ccccc2NC(=O)CCCCCCCCCCCNCCNC(=O)C[C@@H]2N=C(c3ccc(Cl)cc3)c3c(sc(C)c3C)-n3c(C)nnc32)sc1C [CPD-253, (S)-2-(12-((2-(2-(4-(4-Chlorophenyl)-2,3,9-trimethyl-6H-thieno[3,2-f][1,2,4]triazolo[4,3-a][1,4]diazepin-6-yl)acetamido)ethyl)amino)dodecanamido)-N-(4,5-dimethylthiazol-2-yl)benzamide] | dramatically reduce | reduced BRD4 protein levels in a concentration-dependent manner | – | – | – | – | – | – | – | –
2 | CNc1ccc(C(=O)Nc2ccc(OC)nn2)c(NC(=O)CCOCCOCCNC(=O)CN2CCN(c3ccc(Nc4ncc5c(C)c(C(C)=O)c(=O)n(C6CCCC6)c5n4)nc3)CC2)c1 [CPD-343, 2-(3-(2-(2-(2-(4-(6-((6-Acetyl-8-cyclopentyl-5-methyl-7-oxo-7,8-dihydropyrido[2,3-d]pyrimidin-2-yl)amino)pyridin-3-yl)piperazin-1-yl)acetamido)ethoxy)ethoxy)propanamido)-N-(6-methoxypyridazin-3-yl)-4-(methylamino)benzamide] | – | – | remain effective | 26.9 | 52.6 | A (protein percentage degradation >=80%) | 26.9 | 52.6 | > 80 | remained effective in T47D palbo-resistant model

Source: patent publication US20250235543A1, “MODIFIED PROTEINS AND PROTEIN DEGRADERS” (Cullgen (Shanghai), Inc., priority 2021, published 2025)
